Measured values from ChEMBL document CHEMBL5226296, “Reversible Lysine Specific Demethylase 1 (LSD1) Inhibitors: A Promising Wrench to Impair LSD1” (J Med Chem, 2021).
Blank lines part the entries; values can stand above or below the compound they belong to.

Columns and labels:
[1] = molecular target: T1, Lysine-specific histone demethylase 1A (Homo sapiens, UniProt O60341); test: Inhibition of human LSD1 (172 to 833 residues) expressed in Escherichia coli Rosetta 2 strain using H3K4me1 (1 to 21 residues) as substrate by Amplex Red reagent based fluorescence assay
[2] = molecular target: T2, Amine oxidase [flavin-containing] A (Homo sapiens, UniProt P21397); test: Inhibition of recombinant MAO-A (unknown origin) by Spectrometric analysis
T2 sequence (P21397 whole entry): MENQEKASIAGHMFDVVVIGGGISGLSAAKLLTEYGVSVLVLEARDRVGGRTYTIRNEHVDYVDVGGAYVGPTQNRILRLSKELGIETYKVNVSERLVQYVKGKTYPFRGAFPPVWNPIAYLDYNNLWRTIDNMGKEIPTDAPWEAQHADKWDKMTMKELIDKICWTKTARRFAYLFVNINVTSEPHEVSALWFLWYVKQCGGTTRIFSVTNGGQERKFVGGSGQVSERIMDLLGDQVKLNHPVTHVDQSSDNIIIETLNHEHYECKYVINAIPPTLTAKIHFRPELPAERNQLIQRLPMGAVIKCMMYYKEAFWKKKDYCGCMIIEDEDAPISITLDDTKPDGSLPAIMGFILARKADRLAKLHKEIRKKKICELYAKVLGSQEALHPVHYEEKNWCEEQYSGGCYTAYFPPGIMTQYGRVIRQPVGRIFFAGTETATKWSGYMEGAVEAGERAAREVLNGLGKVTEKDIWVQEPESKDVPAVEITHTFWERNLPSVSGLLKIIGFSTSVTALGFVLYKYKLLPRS

[3] = molecular target: T3, Amine oxidase [flavin-containing] B (Homo sapiens, UniProt P27338); test: Inhibition of recombinant MAO-B (unknown origin) by Spectrometric analysis
T3 sequence (P27338 whole entry): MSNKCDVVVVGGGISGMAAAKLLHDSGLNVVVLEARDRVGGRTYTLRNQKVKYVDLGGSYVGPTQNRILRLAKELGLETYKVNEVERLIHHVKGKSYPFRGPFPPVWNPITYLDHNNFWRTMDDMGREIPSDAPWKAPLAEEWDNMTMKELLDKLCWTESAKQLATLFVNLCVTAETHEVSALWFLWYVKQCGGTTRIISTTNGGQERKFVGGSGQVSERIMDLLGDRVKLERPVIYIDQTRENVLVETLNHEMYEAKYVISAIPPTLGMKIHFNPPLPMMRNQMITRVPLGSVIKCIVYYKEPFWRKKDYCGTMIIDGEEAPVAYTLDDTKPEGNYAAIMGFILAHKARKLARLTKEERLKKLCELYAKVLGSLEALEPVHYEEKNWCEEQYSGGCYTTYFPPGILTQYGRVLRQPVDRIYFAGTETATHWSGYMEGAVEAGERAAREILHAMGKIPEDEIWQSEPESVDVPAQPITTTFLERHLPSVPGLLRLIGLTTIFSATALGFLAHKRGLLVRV

[4] = molecular target: T1, Lysine-specific histone demethylase 1A; test: Inhibition of LSD1 (unknown origin) expressed in Escherichia coli BL21 (DE) using H3K4me2 peptide as substrate incubated for 30 mins by Amplex Red reagent based fluorescence analysis
MAO-B [5] = molecular target: T4, MAO-B (Homo sapiens, UniProt P27338); test: Inhibition of recombinant MAO-B (unknown origin) at 1 uM by MAO-GloTM assay
T4 sequence (P27338 whole entry): T3 sequence (P27338 whole entry)

MAO-A [6] = molecular target: T5, MAO-A (Homo sapiens, UniProt P21397); test: Inhibition of recombinant MAO-A (unknown origin) at 1 uM by MAO-GloTM assay
T5 sequence (P21397 whole entry): T2 sequence (P21397 whole entry)

[7] = molecular target: T1, Lysine-specific histone demethylase 1A; test: Inhibition of LSD1 (unknown origin) using methylated histone H3K4 peptide as substrate by fluorescence analysis
[8] = molecular target: T1, Lysine-specific histone demethylase 1A; test: Inhibition of LSD1 (unknown origin)
MGC-803 = test: Antiproliferative activity against human MGC-803 cells assessed as reduction in cell viability incubated for 72 hrs by MTT assay; type: functional, cell-based
[9] = Cytotoxicity against human GES1 cells assessed as reduction in cell viability incubated for 72 hrs by MTT assay; type: toxicity, cell-based
[10] = molecular target: T1, Lysine-specific histone demethylase 1A; test: Inhibition of human GST-tagged LSD1 demethylase activity using H3K4 peptide as substrate by MALDI-TOF analysis
[11] = molecular target: T1, Lysine-specific histone demethylase 1A; test: Inhibition of LSD1 (unknown origin) by fluorescence based microplate reader analysis
MDA-MB-231 = test: Antiproliferative activity against human MDA-MB-231 cells assessed as reduction in cell viability incubated for 48 hrs by MTT assay; type: functional, cell-based; conditions: MDA-MB-231, 48 h
[12] = molecular target: T2, Amine oxidase [flavin-containing] A; test: Inhibition of recombinant MAO-A (unknown origin) by MAO-Glo assay
[13] = molecular target: T3, Amine oxidase [flavin-containing] B; test: Inhibition of recombinant MAO-B (unknown origin) by MAO-Glo assay
[14] = molecular target: T1, Lysine-specific histone demethylase 1A; test: Inhibition of LSD1 (unknown origin) by fluorescence analysis
[15] = molecular target: T1, Lysine-specific histone demethylase 1A; test: Inhibition of recombinant LSD1 (unknown origin)
Raji = test: Antiproliferative activity against human Raji cells assessed as reduction in cell viability incubated for 6 days by MTS assay; type: functional, cell-based; conditions: 144 h
THP-1 = test: Antiproliferative activity against human THP-1 cells assessed as reduction in cell viability incubated for 6 days by MTS assay; type: functional, cell-based; conditions: THP-1, 144 h
MAO-A [16] = molecular target: T5, MAO-A; test: Inhibition of recombinant MAO-A (unknown origin) at 1 uM incubated for 15 mins followed by luciferin substrate addition and measured after 60 mins by Promega-Glo analysis; conditions: probe luciferin substrate, time 75 min
[17] = molecular target: T1, Lysine-specific histone demethylase 1A; test: Inhibition of LSD1 (unknown origin) using H3K4me2 peptide as substrate at 1 uM incubated for 30 mins by Amplex Red reagent based fluorescence analysis
OCI-AML-3 = test: Antiproliferative activity against human OCI-AML-3 cells assessed as reduction in cell viability incubated for 6 days by MTS assay; type: functional, cell-based; conditions: OCI-AML-3, 144 h
U-937 = test: Antiproliferative activity against human U-937 cells assessed as reduction in cell viability incubated for 6 days by MTS assay; type: functional, cell-based; conditions: U-937, 144 h
K562 = test: Antiproliferative activity against human K562 cells assessed as reduction in cell viability incubated for 6 days by MTS assay; type: functional, cell-based; conditions: K562, 144 h
MAO-B [18] = molecular target: T4, MAO-B; test: Inhibition of recombinant MAO-B (unknown origin) at 1 uM incubated for 15 mins followed by luciferin substrate addition and measured after 60 mins by Promega-Glo analysis; conditions: probe luciferin substrate, time 75 min

SMILES: CSCC[C@@H]1NC(=O)[C@@H](NC(=O)[C@H](CCCNC(=N)N)NC(=O)[C@H](C)N)CCCCNC(=O)CC[C@@H](C(=O)N[C@@H](CCC(=O)O)C(=O)N[C@@H](C)C(=O)N[C@@H](CCCNC(=N)N)C(=O)N[C@@H](CCCCN)C(=O)N[C@@H](CO)C(=O)N[C@H](C(=O)O)[C@@H](C)O)NC1=O
Ki [1]: 2.3 µM

SMILES: COc1cc2c(cc1OC)-c1cc3ccc4c(c3c[n+]1CC2)OCO4
IC50 [4]: 0.14 µM | inhibition at 1 µM (MAO-B [5]): < 30% | inhibition at 1 µM (MAO-A [6]): < 30%

SMILES: CSCCc1nc(-c2cccc(N)c2)oc1C
IC50 [7]: 16.1 µM

SMILES: COc1cc(CNC(=O)CCCC/C=C/C(C)C)ccc1O [CAPSAICIN]
IC50 [8]: 0.6 µM

SMILES: COC(=O)c1cc(CN2CCN(C(=N)N)CC2)cc(C(=O)N2CCN(C(=O)c3ccc(C(=N)N)cc3)CC2)c1
IC50 [10]: 5.27 µM

SMILES: COc1c(O)cc2oc3cc(O)c(CC=C(C)C)c(O)c3c(=O)c2c1CC=C(C)C [MANGOSTIN]
IC50 [14]: 2.81 µM | IC50 (MDA-MB-231): 12.8 µM

SMILES: C=CC(=O)Nc1cc(Nc2nccc(-c3cn(C)c4ccccc34)n2)c(OC)cc1N(C)CCN(C)C [OSIMERTINIB]
IC50 [15]: 3.98 µM

SMILES: C#CCSc1nc(Sc2nnnn2-c2ccccc2)c2nnn(Cc3ccccc3Cl)c2n1
IC50 (Raji): 1.4 µM | IC50 (THP-1): 0.45 µM | inhibition at 1.25 h, 1 µM (MAO-A [16]): < 10% | inhibition [17]: 95.6% | IC50 (OCI-AML-3): 1.79 µM | IC50 (U-937): 1.22 µM | IC50 (K562): 1.3 µM | inhibition at 1.25 h, 1 µM (MAO-B [18]): < 10%

SMILES: N=C(N)c1ccc(C(=O)N2CCN(C(=O)c3cc(CN4CCN(C(=N)N)CC4)cc([N+](=O)[O-])c3)CC2)cc1
IC50 [10]: 10.5 µM

Continued, in another order:

IC50 [2]: 109 µM | IC50 [3]: 344 µM
SMILES: Cc1ccc(S(=O)(=O)Nc2cccc(C(=O)NCCc3ccc(O)cc3)c2)cc1

IC50 (MGC-803): 2.95 µM
SMILES: COc1ccc(-c2coc3cc(O)cc(O)c3c2=O)cc1 [BIOCHANIN]
IC50 at 72 h [9]: > 32 µM

IC50 [2]: 63.9 µM | IC50 [3]: 298 µM
SMILES: O=C(NCCc1ccc([N+](=O)[O-])cc1)c1cccc(NS(=O)(=O)c2ccccc2)c1

IC50 [11]: 2.98 µM | IC50 (MDA-MB-231): 19.4 µM
SMILES: COc1c(O[C@H]2O[C@@H](C(=O)O)[C@H](O)[C@@H](O)[C@@H]2O)cc(O)c2c(=O)cc(-c3ccccc3)oc12

IC50 [12]: > 20 µM | IC50 [13]: > 20 µM
SMILES: CC(C)(C)OC(=O)N1CCN(C(=S)SCC(=O)Nc2ccc(C(=O)/C=C/c3ccccc3F)cc2)CC1

IC50 [2]: 71 µM | IC50 [3]: 138 µM
SMILES: COCc1cccc(NC(=O)c2cc3ccccc3n2C)c1COc1ccc(OC2CCNCC2)cc1

IC50 [2]: 90 µM | IC50 [3]: 226 µM
SMILES: Cc1ccc(S(=O)(=O)Nc2cccc(C(=O)NCCc3ccc([N+](=O)[O-])cc3)c2)cc1
